Results: patent US20050171094A1, “Pyrrolopyrimidine derivatives” (priority 2002, published 2005)
Like-named read-outs stand apart in the source and are kept apart here.

Target: recombinant human GSK-3β (Homo sapiens, UniProt P49841)
Test: Determination of inhibition of GSK-3 enzyme activity
Format: biochemical
Conditions: read-out: GSK-3 enzyme-inhibiting activity (IC50 value)
Protocol: Determination of Inhibition of GSK-3 Enzyme Activity
To five μl of a test compound in 5% DMSO as a solvent, 25 μl of phospho-glycogen synthase peptide-2 substrate solution [6 μm phospho-glycogen synthase peptide-2, 20 μm ATP, 16 mM MOPS buffer, pH 7.0, 0.2 mM EDTA, 20 mM magnesium acetate, 0.1 μl [γ-^33P]ATP (specific activity: about 110 TBq/mmol)] was added, and 20 μl of a GSK-3β enzyme solution [10 mU recombinant human GSK-3β, 20 mM MOPS buffer, pH 7.0, 1 mM EDTA, 0.1% polyoxyethylenelauryl ether (23 Lauryl Ether; Brij 35), 5% glycerol, 0.1% β-mercaptoethanol] was further added to initiate the reaction. After reacting at room temperature for 20 minutes, an equal amount of 200 mM phosphate solution was added to stop the reaction. 90 μl of the reaction product was allowed to adsorb to the MultiScreen PH plate (Millipore), and washed with 100 mM phosphate solution. After drying said plate, 30 μl of MicroScint-O (Packard Bioscience) was added, and cpm was measured by a scintilation counter to examine the inhibition activity. As used herein, Phospho GS Peptide 2 means […]P)-Glu-Asp-Glu-Glu-Glu (SEQ ID NO: 1).

recombinant human GSK-3β, sequence (P49841 whole entry): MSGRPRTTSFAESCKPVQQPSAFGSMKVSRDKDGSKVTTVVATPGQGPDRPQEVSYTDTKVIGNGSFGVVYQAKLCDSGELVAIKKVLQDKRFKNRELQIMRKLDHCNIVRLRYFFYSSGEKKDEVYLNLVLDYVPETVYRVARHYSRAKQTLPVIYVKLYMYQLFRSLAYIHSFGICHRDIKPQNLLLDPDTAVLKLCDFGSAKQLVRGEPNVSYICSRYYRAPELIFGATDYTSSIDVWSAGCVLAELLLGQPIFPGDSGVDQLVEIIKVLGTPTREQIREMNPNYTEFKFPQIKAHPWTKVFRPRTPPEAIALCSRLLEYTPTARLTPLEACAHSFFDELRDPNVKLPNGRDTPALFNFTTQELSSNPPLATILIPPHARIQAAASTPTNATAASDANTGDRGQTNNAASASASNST

| SMILES | IC50 (IC50 class given in μM) | IC50 (phospho-glycogen synthase peptide-2 substrate, [γ-33P]ATP, IC50 class printed in nM) |
| --- | --- | --- |
| Cc1ccc(NC(=O)N2CCc3c(C#N)c4nc[nH]c(=O)c4n3CC2)cc1 [Compound No. 161, (11-cyano-4-oxo(3-hydro-6H,7H,9H,10H-1,4-diazaperhydroepino[4′,5′-1,5]pyrrolo[3,2-d]pyrimidine-8-yl))-N-(4-methylphenyl)carboxamide] | 1 to 10 µM | – |
| N#Cc1c2n(c3c(=S)[nH]cnc13)CCN(C(=O)Nc1cccc(C(=O)O)c1)CC2 [Compound No. 792, 3-[(11-cyano-4-thioxo-3-hydro-6H,7H,9H,10H-1,4-diazaperhydroepino[4′,5′-1,5]pyrrolo[3,2-d]pyrimidine-8-yl)carbonylamino]benzoic Acid] | – | < 0.05 µM |
| N#Cc1c2n(c3c(=S)[nH]cnc13)CCN(Cc1ccccc1)c1ccccc1-2 [Compound No. 1799, 5-benzyl-9-thioxo-10-hydro-6H,7H-benzo[f]pyrimidino[5′,4′-2,3]pyrrolo[1,5-d]1,4-diazepine-13-carbonitrile] | 1 to 10 µM | – |
| Cc1ccc(C(=O)N2CCc3c(C#N)c4nc[nH]c(=O)c4n3CC2)cc1 [Compound No. 50, 8-[(4-methylphenyl)carbonyl]4-oxo-3-hydro-6H,7H,9H,10H-1,4-diazaperhydroepino[1′,7′-5,1]pyrrolo[3,2-d]pyrimidine-11-carbonitrile] | 1 to 10 µM | – |
| N#Cc1c2n(c3c(=S)[nH]cnc13)CCN(S(=O)(=O)c1ccccc1)CC2 [Compound No. 410, 8-(phenylsulfonyl)-4-thioxo-3-hydro-6H,7H,9H,10H-1,4-diazaperhydroepino[1′,7′-5,1]pyrrolo[3,2-d]pyrimidine-11-carbonitrile] | 1 to 10 µM | – |
